From patent US6423730B1, “Method to control termites” (Dow AgroSciences LLC, priority 1999, dated 2002)

How the values were obtained:
Reticulitermes = experiment: AWPA E1-97 treated southern yellow pine wood block termite test; format: in vivo; settings: treated southern yellow pine wood blocks, four weeks
Protocol: Compounds of Formula I were evaluated using standard evaluation methodology as prescribed by the American Wood Preservers Association Standard AWPA E1-97, incorporated herein by reference, using a species of the destructive termite, Reticulitermes.
In this test replicate containers containing damp sand and southern yellow pine wood blocks treated with the compound are used. Termites are introduced into the test container and after four weeks the containers are disassembled and the wood blocks are evaluated for termite damage. Termite mortality is also evaluated.

Reticulitermes lalvipes = experiment: Treated filter pad and pine wood chip petri dish termite kill test; format: in vivo; settings: 8 days after treatment, 13° C.
Protocol: Subterranean worker termites, Reticulitermes lalvipes, were purchased from Carolina Biological Supply Co. The insects were stored with their shipping material, decayed wood chips and moist paper towels, in an unlit growth chamber at 13° C. for three days prior to start of the test. This delay was to acclimate the termites to the test conditions as well as to eliminate weak individuals.
The compounds tested, 100 mg each, were dissolved in 10 mL of pure ethanol (dehydrated, 200 proof) to provide a solution of 10,000 ppm. The solution was serial diluted by 10× to achieve dilutions of 1,000, 100, 10, and 1 ppm. A pure cellulose fiber filter pad was soaked with 1 mL of each test sample and placed into a Falcon petri dish (50×9 mm sterile polystyrene). In addition, a pine wood chip, approximately 12×12×4 mm was dipped into the test solution for 30 seconds and placed on the filter paper. Solvent from the treated filters and wood chips was then allowed to evaporate for 24 hours. The next day, five termites were placed on the filter pad and the upper lid of the petri plate was secured. Three replications were used for each treatment.
The termites in the petri dishes were returned to the growth chamber at 13° C. The humidity was high enough to allow for condensation on the upper plate surface, which provided water for the termites. The petri dishes were briefly removed from the chamber at 2, 4, and 8 days after treatment to count the number of live termites. Data was expressed as the percentage of control (kill) of termites.

Structure (SMILES) | Minimum Retention Preventing Termite Attack (Reticulitermes) [kg/m^3] | Control (% kill at 8 days) (Reticulitermes lalvipes; dose 1 ppm) [%] | Control (% kill at 8 days) (Reticulitermes lalvipes; dose 10 ppm) [%] | Control (% kill at 8 days) (Reticulitermes lalvipes; dose 100 ppm) [%] | Control (% kill at 8 days) (Reticulitermes lalvipes; dose 1,000 ppm) [%] | Control (% kill at 8 days) (Reticulitermes lalvipes; dose 10,000 ppm) [%]
CCOP(=S)(OCC)Oc1nc(Cl)c(Cl)cc1Cl [Comparative, chlorpyrifos, reference compound] | >0.160 |  |  |  |  | 
O=C(Nc1cc(Cl)c(Cl)c(Cl)c1)c1sc(C(F)(F)F)nc1C(F)(F)F [Compound 4] |  | 77 | 47 | 33 | 73 | 100
O=C(Nc1c(Br)cc(OC(F)(F)F)cc1Br)c1sc(C(F)(F)F)nc1C(F)(F)F [Compound 5] | 0.768 |  |  |  |  | 
O=C(Nc1ccc(Cl)c(Cl)c1Cl)c1sc(C(F)(F)F)nc1C(F)(F)F [Compound 6] |  | 33 | 27 | 53 | 100 | 100
O=C(Nc1cc(Cl)c(Cl)cc1Cl)c1sc(C(F)(F)F)nc1C(F)(F)F [Compound 7] |  | 73 | 60 | 87 | 100 | 100
O=C(Nc1ccc(Cl)cc1Cl)c1sc(C(F)(F)F)nc1C(F)(F)F [Compound 8] |  | 7 | 0 | 0 | 20 | 100
O=C(Nc1cc(Cl)ccc1Cl)c1sc(C(F)(F)F)nc1C(F)(F)F [Compound 9] |  | 27 | 40 | 20 | 53 | 100
O=C(Nc1c(Cl)cccc1Cl)c1sc(C(F)(F)F)nc1C(F)(F)F [Compound 10] |  | 7 | 0 | 0 | 67 | 73
O=C(Nc1cc(Cl)cc(Cl)c1)c1sc(C(F)(F)F)nc1C(F)(F)F [Compound 11] |  | 0 | 7 | 13 | 13 | 67
